System: HUVEC/MSC spheroids viability
Experiment: Human HUVEC/MSC cell line growth inhibition [KRAS2];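 on viability, T/C: percent of DMSO vehicle control luminescence so 100% = untreated viability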
Conditions: for IC50: curve of first compound; for viability, T/C: stronger effect = lower value
From the text: Multicellular complex tumor spheroid response to RAS pathway inhibitors in combination with a targeted agents in patient-derived cell lines with oncogenic KRAS variants from multiple cancer types
A high-throughput screen of multi-cell type tumor spheroids was designed to identify active combinations of targeted small molecules and KRAS pathway inhibitors. Complex spheroids include a stromal component modeled by human endothelial cells (HUVEC) and fibroblasts modeled by human mesenchymal stem cells (MSCs). The concentration ranges selected for each drug and investigational agent were based upon clinically achievable concentrations if the clinical Cmax of the agent was known. * [This particular assayID is a followup dataset requested by reviewers of the manuscript. It is a test of the HUVEC and MSC without the tumor cells, and was conducted using different drug plates and a different plate layout.]
Compounds. The drugs and investigational agents: BI-3406 (NSC825286), BAY-293 (NSC824723), batoprotafib (TNO155; NSC825523), sotorasib (AMG 510; NSC818433), MRTX1257 (NSC819558), elimusertib (BAY 1895344; NSC800525), molibresib (GSK525762; NSC774829), temuterkib (LY3214996; NSC803410), venetoclax (NSC766270), alisertib (NSC759677), olaparib (NSC753686), talazoparib (NSC767125), erdafitinib (NSC781556), ipatasertib (NSC767898), cabozantinib (NSC761068), nintedanib (NSC756659), abemaciclib (NSC768073), docetaxel (NSC628503), trametinib (NSC758246), and sapanisertib (NSC764658) were obtained from the National Cancer Institute (NCI) Developmental Therapeutics Program Chemical Repository. The FDA-approved anticancer drug set is available from the Developmental Therapeutics Program. […] The stock solutions were prepared in dimethyl sulfoxide (DMSO, Sigma-Aldrich, St. Louis, MO, cat. D2650) at 800-fold the tested concentration and stored at -70 degrees C prior to their use. All drugs and investigational agents were tested over a range starting from a high concentration at or near the clinical Cmax and decreasing in half-log increments. If the clinical Cmax for an agent had not been determined, the highest concentration tested was 10 microM.
Cell Culture. All cells were maintained in an incubator at 37 degrees C and 5% CO2 with 95% humidity. The PDC lines were cultured according to standard operating procedures established by the NCI PDMR (https://pdmr.cancer.gov/sops/default.htm). Briefly, all PDCs were thawed and cultured in Matrigel-coated flasks prepared with a working solution of 1X Ham's F-12 nutrient mix, without supplementation (Invitrogen, Waltham, MA, cat. 11765054), 100 U/mL penicillin-streptomycin (Invitrogen, cat. 15140122), and 2.5% Matrigel (Corning Inc., Corning, NY, cat. 354248) for the first three passages. All PDCs were cultured in complete DMEM/F-12 media containing advanced DMEM/F-12 (Invitrogen, cat. 12634028), 4.9% defined fetal bovine serum, heat inactivated (HyClone Laboratories Inc., Logan, UT, cat. SH30070.03HI), 389 ng/mL hydrocortisone (Sigma-Aldrich, cat. H4001), 9.7 ng/mL human EGF recombinant protein (Invitrogen, cat. PHG0313), 23.4 microg/mL adenine (Sigma-Aldrich, cat. A2786), 97.3 U/mL penicillin-streptomycin (Invitrogen, cat. 15140122), 1.9 mM L-glutamine (Invitrogen, cat. 25030081), and 9.7 microM Y-27632 dihydrochloride (Tocris Bioscience, Bristol, United Kingdom, cat. 1254). The PDCs were cultured in complete DMEM/F12 media without 9.7 microM Y-27632 dihydrochloride for at least two passages prior to the screen. The established cell line HOP-62 was cultured in RPMI 1640 medium, HEPES (Invitrogen, cat. 22400105) with 10% defined fetal bovine serum (HyClone Laboratories Inc., cat. SH30070.03) and 2 mM L-glutamine (Invitrogen, cat. 25030081). The pooled donor HUVEC were cultured in endothelial cell growth medium 2 (PromoCell, Heidelberg, Germany, cat. C-22011) and the hMSC were cultured in mesenchymal stem cell growth medium 2 (PromoCell, cat. C-28009). […]

[1] = second compound 0.0316 µM, first compound 0.0316 µM
[2] = second compound 0.0316 µM, first compound 0.1 µM
[3] = second compound 0.1 µM, first compound 0.0316 µM
[4] = second compound 0.1 µM, first compound 0.1 µM
[5] = second compound 0.316 µM, first compound 0.0316 µM
[6] = second compound 0.316 µM, first compound 0.1 µM
[7] = second compound 1 µM, first compound 0.0316 µM
[8] = second compound 1 µM, first compound 0.1 µM
[9] = second compound 3.16 µM, first compound 0.0316 µM
[10] = second compound 3.16 µM, first compound 0.1 µM
[11] = second compound 10 µM, first compound 0.0316 µM
[12] = second compound 10 µM, first compound 0.1 µM
[13] = second compound 0.0316 µM, first compound 0.316 µM
[14] = second compound 0.0316 µM, first compound 1 µM
[15] = second compound 0.0316 µM, first compound 3.16 µM
[16] = second compound 0.0316 µM, first compound 10 µM
[17] = second compound 0.1 µM, first compound 0.316 µM
[18] = second compound 0.1 µM, first compound 1 µM
[19] = second compound 0.1 µM, first compound 3.16 µM
[20] = second compound 0.1 µM, first compound 10 µM
[21] = second compound 0.316 µM, first compound 0.316 µM
[22] = second compound 0.316 µM, first compound 1 µM
[23] = second compound 0.316 µM, first compound 3.16 µM
[24] = second compound 0.316 µM, first compound 10 µM
[25] = second compound 1 µM, first compound 0.316 µM
[26] = second compound 1 µM, first compound 1 µM
[27] = second compound 1 µM, first compound 3.16 µM
[28] = second compound 1 µM, first compound 10 µM
[29] = second compound 3.16 µM, first compound 0.316 µM
[30] = second compound 3.16 µM, first compound 1 µM
[31] = second compound 3.16 µM, first compound 3.16 µM
[32] = second compound 3.16 µM, first compound 10 µM
[33] = second compound 10 µM, first compound 0.316 µM
[34] = second compound 10 µM, first compound 1 µM
[35] = second compound 10 µM, first compound 3.16 µM
[36] = second compound 10 µM, first compound 10 µM

`Cn1ncnc1[C@H]1c2n[nH]c(=O)c3cc(F)cc(c23)N[C@@H]1c1ccc(F)cc1` + CNCc1ccccc1-c1csc(C(C)Nc2nc(C)nc3cc(OC)c(OC)cc23)c1 showed an IC50 (second compound 0.0316 µM) greater than 0.1 µM, an IC50 (second compound 0.1 µM) greater than 0.1 µM and an IC50 (second compound 0.316 µM) greater than 0.1 µM. For the same compound, the IC50 (second compound 1 µM) was greater than 0.1 µM, the IC50 (second compound 3.16 µM) was greater than 0.1 µM and the IC50 (second compound 10 µM) was less than 0.000316 µM. The viability, T/C (second compound 0.0316 µM, first compound 0.000316 µM) was 97.8%, the viability, T/C (second compound 0.0316 µM, first compound 0.001 µM) was 85.9% and the viability, T/C (second compound 0.0316 µM, first compound 0.00316 µM) was 81.2%. It also gave a viability, T/C (second compound 0.0316 µM, first compound 0.01 µM) of 73.2%, a viability, T/C [1] of 76.8% and a viability, T/C [2] of 78.4%. The viability, T/C (second compound 0.1 µM, first compound 0.000316 µM) was 93.3%, the viability, T/C (second compound 0.1 µM, first compound 0.001 µM) was 90.2% and the viability, T/C (second compound 0.1 µM, first compound 0.00316 µM) was 90.2%. The viability, T/C (second compound 0.1 µM, first compound 0.01 µM) was 70.6%, the viability, T/C [3] was 81.8% and the viability, T/C [4] was 79.7%. For the same compound, the viability, T/C (second compound 0.316 µM, first compound 0.000316 µM) was 65.4%, the viability, T/C (second compound 0.316 µM, first compound 0.001 µM) was 90.5% and the viability, T/C (second compound 0.316 µM, first compound 0.00316 µM) was 79.9%. It also gave a viability, T/C (second compound 0.316 µM, first compound 0.01 µM) of 76.5%, a viability, T/C [5] of 76.2% and a viability, T/C [6] of 69.2%. For the same compound, the viability, T/C (second compound 1 µM, first compound 0.000316 µM) was 67.3%, the viability, T/C (second compound 1 µM, first compound 0.001 µM) was 76.9% and the viability, T/C (second compound 1 µM, first compound 0.00316 µM) was 67%. For the same compound, the viability, T/C (second compound 1 µM, first compound 0.01 µM) was 75.3%, the viability, T/C [7] was 75.9% and the viability, T/C [8] was 72%. It also gave a viability, T/C (second compound 3.16 µM, first compound 0.000316 µM) of 89%, a viability, T/C (second compound 3.16 µM, first compound 0.001 µM) of 86.8% and a viability, T/C (second compound 3.16 µM, first compound 0.00316 µM) of 94.7%. It also gave a viability, T/C (second compound 3.16 µM, first compound 0.01 µM) of 80.7%, a viability, T/C [9] of 77.8% and a viability, T/C [10] of 75%. For the same compound, the viability, T/C (second compound 10 µM, first compound 0.000316 µM) was 0.29%, the viability, T/C (second compound 10 µM, first compound 0.001 µM) was 0.28% and the viability, T/C (second compound 10 µM, first compound 0.00316 µM) was 0.32%. For the same compound, the viability, T/C (second compound 10 µM, first compound 0.01 µM) was 0.29%, the viability, T/C [11] was 0.31% and the viability, T/C [12] was 0.28%.
In the case of `O=C(c1cc(Cc2n[nH]c(=O)c3ccccc23)ccc1F)N1CCN(C(=O)C2CC2)CC1` + C=CC(=O)N1CCN(c2nc(=O)n(-c3c(C)ccnc3C(C)C)c3nc(-c4c(O)cccc4F)c(F)cc23)C(C)C1, the IC50 (second compound 0.0316 µM) is reported as greater than 10 µM, the IC50 (second compound 0.1 µM) is reported as greater than 10 µM and the IC50 (second compound 0.316 µM) is reported as greater than 10 µM. It also gave an IC50 (second compound 1 µM) greater than 10 µM, an IC50 (second compound 3.16 µM) greater than 10 µM and an IC50 (second compound 10 µM) greater than 10 µM. The viability, T/C [1] was 104%, the viability, T/C [2] was 109% and the viability, T/C [13] was 125%. For the same compound, the viability, T/C [14] was 85.1%, the viability, T/C [15] was 95% and the viability, T/C [16] was 104%. It also gave a viability, T/C [3] of 114%, a viability, T/C [4] of 107% and a viability, T/C [17] of 95.3%. It also gave a viability, T/C [18] of 107%, a viability, T/C [19] of 133% and a viability, T/C [20] of 99.2%. The viability, T/C [5] was 112%, the viability, T/C [6] was 122% and the viability, T/C [21] was 98.2%. It also gave a viability, T/C [22] of 114%, a viability, T/C [23] of 115% and a viability, T/C [24] of 105%. The viability, T/C [7] was 128%, the viability, T/C [8] was 104% and the viability, T/C [25] was 124%. The viability, T/C [26] was 120%, the viability, T/C [27] was 126% and the viability, T/C [28] was 118%. For the same compound, the viability, T/C [9] was 148%, the viability, T/C [10] was 118% and the viability, T/C [29] was 146%. It also gave a viability, T/C [30] of 137%, a viability, T/C [31] of 116% and a viability, T/C [32] of 125%. The viability, T/C [11] was 127%, the viability, T/C [12] was 140% and the viability, T/C [33] was 145%. For the same compound, the viability, T/C [34] was 108%, the viability, T/C [35] was 126% and the viability, T/C [36] was 120%.
For `CC(C)NCC(C(=O)N1CCN(c2ncnc3c2C(C)CC3O)CC1)c1ccc(Cl)cc1` (stereo unspecified) + COc1cc2nc(C)nc(NC(C)c3cc(N)cc(C(F)(F)F)c3)c2cc1OC1CCOC1, the IC50 (second compound 0.0316 µM) was 1.97 µM, the IC50 (second compound 0.1 µM) was 1.58 µM and the IC50 (second compound 0.316 µM) was 2.1 µM. For the same compound, the IC50 (second compound 1 µM) was 2.24 µM, the IC50 (second compound 3.16 µM) was 3.01 µM and the IC50 (second compound 10 µM) was 0.996 µM. For the same compound, the viability, T/C [1] was 92.4%, the viability, T/C [2] was 95.3% and the viability, T/C [13] was 77.1%. For the same compound, the viability, T/C [14] was 52%, the viability, T/C [15] was 48% and the viability, T/C [16] was 49.5%. For the same compound, the viability, T/C [3] was 77.5%, the viability, T/C [4] was 97.5% and the viability, T/C [17] was 77.5%. For the same compound, the viability, T/C [18] was 53.4%, the viability, T/C [19] was 50% and the viability, T/C [20] was 36.5%. It also gave a viability, T/C [5] of 80.1%, a viability, T/C [6] of 102% and a viability, T/C [21] of 81.2%. For the same compound, the viability, T/C [22] was 62.9%, the viability, T/C [23] was 42.8% and the viability, T/C [24] was 40.4%. It also gave a viability, T/C [7] of 85.1%, a viability, T/C [8] of 104% and a viability, T/C [25] of 88.5%. For the same compound, the viability, T/C [26] was 59.8%, the viability, T/C [27] was 46.8% and the viability, T/C [28] was 44.1%. The viability, T/C [9] was 74%, the viability, T/C [10] was 94.2% and the viability, T/C [29] was 76.9%. The viability, T/C [30] was 61.8%, the viability, T/C [31] was 52.9% and the viability, T/C [32] was 36.3%. It also gave a viability, T/C [11] of 58%, a viability, T/C [12] of 71.1% and a viability, T/C [33] of 75.8%. It also gave a viability, T/C [34] of 49.9%, a viability, T/C [35] of 42.5% and a viability, T/C [36] of 33.4%.
